Experimental data as given in patent US20210008177A1 (priority 2019, published 2021).
Entries after “also recorded” stand apart in the source; their conditions may differ. Where two headings read alike, the source gives them in different places.

Columns and labels:
[1] = test system: Kunming mice; type: in vivo; details: for average pain threshold before injection, difference between physiological saline, cobrotoxin and cobrotoxin+morphine groups: day 5 through day 11
Text: 100 Kunming mice were subjected to tail pressure tests for 4 days to measure the mechanical pain threshold and the average pain threshold will be set as the baseline pain threshold. • i. Put the mouse gently into the restraint and put its tail under the conical tip of the pain test apparatus. Press the pedal switch, and increase the pressure on the proximal end of the tail evenly until signs of the first pain response (struggle, squeaking) occurs. Record pain-inducing pressure when pain response occurs (units: g) as the value of pain threshold. The pressure was released upon reaching 700 g with no indication of a response to avoid tissue injury. Measurements were also conducted at the middle and distal ends of the tail of the same mouse with a minimum of 30 seconds time intervals between each measurement. • ii. Put the tested mice in a cage and test the next one until every mouse in the group is tested. The average of the three measurements (i.e., the proximal, mid and distal ends of each mouse tail) was used as the pain threshold (g) of each mouse when all mice were subjected to a tail pressure test. • iii. In the following 3 days, all mice underwent repeated measurements of tail pressure pain threshold. • iv. […] The mice were then randomly divided into four groups: namely ‘physiological saline group’, ‘morphine group’, ‘cobrotoxin group’ and ‘cobrotoxin+morphine group’. Each group comprised of 20 mice, which is used for the hyperalgesia and tolerance test of the corresponding drugs in the group's name. Any surplus mice were excluded. • v. Lastly, each group of 20 mice was divided randomly again into two groups, with each group comprising 10 mice, as cobrotoxin of amino acid sequence ID NO.1, and cobrotoxin of amino acid sequence ID NO. 2 will be used for parallel testing
After 4 days of measurement of the mice's baseline pain threshold described in step 1, from the fifth day to the eleventh day, the measurement of pain threshold was performed before the injection. […]

[2] = test system: Kunming mice; details: mouse, in vivo
Text: To evaluate the therapeutic effects elapidea neurotoxins, one of the reliable morphine induced hyperalgesia/tolerance model in mice (Elhabazi, K et al) was created, and effects of the representative EXAMPLE compounds were investigated on the model.
100 Kunming mice were subjected to tail pressure tests for 4 days to measure the mechanical pain threshold and the average pain threshold will be set as the baseline pain threshold. • i. Put the mouse gently into the restraint and put its tail under the conical tip of the pain test apparatus. Press the pedal switch, and increase the pressure on the proximal end of the tail evenly until signs of the first pain response (struggle, squeaking) occurs. Record pain-inducing pressure when pain response occurs (units: g) as the value of pain threshold. The pressure was released upon reaching 700 g with no indication of a response to avoid tissue injury. Measurements were also conducted at the middle and distal ends of the tail of the same mouse with a minimum of 30 seconds time intervals between each measurement. • ii. Put the tested mice in a cage and test the next one until every mouse in the group is tested. […] The pain threshold of the mice measured by the tail pressure test ranged from 180 g to 220 g. […]

[3] = test system: SD rats; details: rat, in vivo
Experimental: Writhing test was applied to the rats, which is a chemical method used to induce pain of the peripheral origin by injection of irritant principles like acetic acid in rats. Analgesic effect of the test compound is inferred from the decrease in the frequency of writhe.
The aforementioned four groups of rats were injected with sterile saline (NaCl 0.9% 1 ml), morphine (3 mg/kg), cobrotoxin (50 ug/kg), and cobrotoxin (25 ug/kg)+morphine (1.5 mg/kg) respectively.
Following Step1, the aforementioned four groups SD rats were injected with 1.5% acetic acid solution (1 ml/rat) again 150 and 210 minutes after the initial injection of 4 different drugs respectively.

[4] = test system: NO; assay: NO content in lumbar spinal cord tissue of mice after tolerance and hyperalgesia tests; details: lumbar spinal cord homogenate of mice after 7 days of injections, cobrotoxin of sequence ID NO.1, SD in own column
[5] = test system: IL-6; assay: IL-6 in lumbar spinal cord tissue of mice after tolerance and hyperalgesia tests (ELISA); details: lumbar spinal cord homogenate of mice after 7 days of injections, cobrotoxin of sequence ID NO.1, SD in own column
[6] = test system: NOS; assay: NOS activity in lumbar spinal cord tissue of mice after tolerance and hyperalgesia tests; details: lumbar spinal cord homogenate of mice after 7 days of injections, cobrotoxin of sequence ID NO.1, SD in own column
[7] = test system: IL-1β; assay: IL-1β in lumbar spinal cord tissue of mice after tolerance and hyperalgesia tests (ELISA); details: lumbar spinal cord homogenate of mice after 7 days of injections, cobrotoxin of sequence ID NO.1, SD in own column

**Q.** For `CN1CC[C@]23c4c5ccc(O)c4O[C@H]2[C@@H](O)C=C[C@H]3[C@H]1C5` [morphine], which “mean pain threshold before injection (hyperalgesia)” value ([1]; mouse, in vivo) is on record?
**A.** significantly lower

**Q.** And the “average pain threshold one hour after injection, difference within the group between day five, eight and eleven” value [2]?
**A.** significant statistical difference

**Q.** And the “mean pain threshold one hour after injection, course within the group (tolerance)” value [2]?
**A.** significantly decreased from day 5 to day 11

**Q.** And the “analgesic effect in writhing test” value [3]?
**A.** lower analgesic effect; also recorded: almost no signs of any analgesic effect

**Q.** What about the “number of writhing, difference within the group between 60, 150 and 210 minutes” value [3] of the same molecule?
**A.** significant statistical difference

**Q.** What about the NO [4] of the same molecule?
**A.** significantly higher

**Q.** And the NO ([4]; listed as Morphine)?
**A.** 1.61 μmol/g protein

**Q.** And the IL-6 [5]?
**A.** significantly higher

**Q.** What about the IL-6 ([5]; listed as Morphine) of the same molecule?
**A.** 19.40 pg/mg protein

**Q.** And the NOS [6]?
**A.** significantly higher

**Q.** What about the NOS ([6]; listed as Morphine) of the same molecule?
**A.** 7.56 U/mg protein

**Q.** What about the IL-1β [7] of the same molecule?
**A.** significantly higher

**Q.** What about the IL-1β ([7]; listed as Morphine) of the same molecule?
**A.** 16.80 pg/mg protein

B1: Cobrotoxin of amino acid sequence ID No.2: mktllltllv vtivcldlgy tlechnqqss qtptttgcsg getncykkrw rdhrgyrter gcgcpsvkng ieinccttdr cnn (protein)
chain: MKTLLLTLLVVTIVCLDLGYTLECHNQQSSQTPTTTGCSGGETNCYKKRWRDHRGYRTERGCGCPSVKNGIEINCCTTDRCNN
modifications: Naja atra or Naja kaouthia
notes: mktllltllv vtivcldlgy tlechnqqss qtptttgcsg getncykkrw rdhrgyrter gcgcpsvkng ieinccttdr cnn
**Q.** How did the “average pain threshold before injection, difference between physiological saline, cobrotoxin and cobrotoxin+morphine groups” value ([1]; FIG. 4, cobrotoxin of sequence ID No.2) turn out when B1 was run?
**A.** No significant statistical differences

B2: Cobrotoxin of amino acid sequence ID No.1 (protein)
chain: LECHNQQSSQTPTTTGCSGGETNCYKKRWRDHRGYRTERGCGCPSVKNGIEINCCTTDRCNN
modifications: Naja atra or Naja kaouthia
**Q.** For B2, which “average pain threshold before injection, difference between physiological saline, cobrotoxin and cobrotoxin+morphine groups” value ([1]; FIG. 3, cobrotoxin of sequence ID No.1) is on record?
**A.** No significant statistical differences
